Experimental data published in US8748430B2, “Pyrrolidin-3yl-methylamine quinoxaline derivatives” (Hoffmann-La Roche Inc, priority 2008, dated 2014).

Molecular target: T1, human orexin-2 (hOX2) receptor (Homo sapiens, UniProt O43614)
T1 construct: expressed in transfected cells
T1 sequence (O43614 1-444): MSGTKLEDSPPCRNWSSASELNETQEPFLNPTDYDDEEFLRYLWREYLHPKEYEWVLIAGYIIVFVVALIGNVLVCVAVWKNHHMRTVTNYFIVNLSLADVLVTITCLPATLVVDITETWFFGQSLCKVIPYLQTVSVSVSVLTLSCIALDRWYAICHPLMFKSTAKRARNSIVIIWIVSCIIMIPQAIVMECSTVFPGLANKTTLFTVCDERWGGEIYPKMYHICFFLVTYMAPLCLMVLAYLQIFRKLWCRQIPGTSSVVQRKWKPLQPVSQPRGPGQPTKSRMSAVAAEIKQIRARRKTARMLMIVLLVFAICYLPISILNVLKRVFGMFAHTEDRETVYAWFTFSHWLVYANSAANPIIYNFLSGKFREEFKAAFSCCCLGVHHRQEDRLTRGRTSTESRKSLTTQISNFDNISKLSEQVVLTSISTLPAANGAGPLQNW
Assay: Intracellular Ca2+ mobilization assay (FLIPR), antagonism of orexin-A at EC80
Format: cell-based
Settings: CHO(dHFr-) cells stably expressing hOX2; orexin-A at EC80 as agonist; antagonist applied 25 min before; Kb=IC50/(1+[A]/EC50); read-out: Kb (μM) OX2R (human)
Method: Intracellular Ca^2+ Mobilization Assay
The Chinese Hamster Ovary (dHFr-) mutant cell line stably expressing human orexin-1 (hOX1) or human orexin-2 (hOX2) receptors were maintained in Dulbecco's Modified Eagle Medium (1×) with GlutaMax™1, 4500 mg/L D-Glucose and Sodium Pyruvate (Catalog No. 31966-021, Invitrogen, Carlsbad, Calif.), 5% dialyzed fetal calf serum (Catalog No. 26400-044), 100 μg/ml penicillin and 100 μg/ml streptomycin. The cells were seeded at 5×10^4 cells/well in the poly-D-lysine treated, 96-well, black/clear-bottomed plates (Catalog No. BD356640, BD Biosciences, Palo Alto, Calif.). 24 h later, the cells were loaded for 1 h at 37° C. with 4 μM Flou-4 acetoxymethyl ester (Catalog No. F-14202, Molecular Probes, Eugene, Oreg.) in FLIPR buffer (1×HBSS, 20 mM HEPES, 2.5 mM Probenecid). Hanks' Balanced Salt Solution (HBSS) (10×) (catalog No. 14065-049) and HEPES (1M) (catalog No. 15630-056) were purchased from Invitrogen, Carlsbad, Calif. Probenecid (250 mM) (catalog No. P8761) was from Sigma, Buchs, Switzerland. The cells were washed five times with FLIPR buffer to remove excess dye and intracellular calcium mobilization, [Ca^2+]i were measured using a Fluorometric Imaging Plate Reader (FLIPR-96, Molecular Devices, Menlo Park, Calif.) as described previously (Malherbe et al., Mol. Pharmacol., 64, 823-832, 2003). Orexin A (catalog No. 1455, Toris Cookson Ltd, Bristol, UK) was used as agonist. Orexin A ([…] stock solution in DMSO) was diluted in FLIPR buffer+0.1% BSA. The EC50 and EC80 values of orexin-A were measured daily from standard agonist concentration-response curves in CHO(dHFr-)-OX1R and -OX2R cell lines. All compounds were dissolved in 100% DMSO. Inhibition curves were determined by addition of 11 concentrations (0.0001-10 μM) of inhibitory compounds and using EC80 value of orexin-A as agonist (a concentration which gave 80% of max agonist response, determined daily). The antagonists were applied 25 min (incubation at 37° C.) before the application of the agonist. Responses were measured as peak increase in fluorescence minus basal, normalized to the maximal stimulatory effect induced by EC80 value of orexin-A or orexin-B. Inhibition curves were fitted according to the Hill equation: y=100/(1+(x/IC50)^nH), where nH=slope factor using Excel-fit 4 software (Microsoft). Kb values were calculated according to the following equation Kb=IC50/(1+[A]/EC50) where A is the concentration of agonist added which is very close to agonist EC80 value, and IC50 and EC50 values were derived from the antagonist inhibition and orexin-A or B agonist curves, respectively.

| SMILES | Kb [µM] |
| --- | --- |
| COc1cccc(OC)c1C(=O)N1CCC(CNc2nc3ccc(Cl)cc3o2)C1 (centres unmarked) [Example 1, {3-[(6-Chloro-benzooxazol-2-ylamino)-methyl]-pyrrolidin-1-yl}-(2,6-dimethoxy-phenyl)-methanone] | 0.0292 |
| COc1cccc(OC)c1C(=O)N1CC[C@@H](CNc2nc3ccc(Cl)cc3o2)C1 [Example 2, {(S)-3-[(6-Chloro-benzooxazol-2-ylamino)-methyl]-pyrrolidin-1-yl}-(2,6-dimethoxy-phenyl)-methanone] | 0.0573 |
| O=C(c1ccccc1C(F)(F)F)N1CC[C@@H](CNc2nc3ccc(F)cc3s2)C1 [Example 3, {(S)-3-[(6-Fluoro-benzothiazol-2-ylamino)-methyl]-pyrrolidin-1-yl}-(2-trifluoromethyl-phenyl)-methanone] | 0.207 |
| O=C(c1ccccc1OC(F)(F)F)N1CC[C@@H](CNc2nc3ccc(F)cc3s2)C1 [Example 4, {(S)-3-[(6-Fluoro-benzothiazol-2-ylamino)-methyl]-pyrrolidin-1-yl}-(2-trifluoromethoxy-phenyl)-methanone] | 0.129 |
| O=C(c1ccccc1OC(F)(F)C(F)F)N1CC[C@@H](CNc2nc3ccc(F)cc3s2)C1 [Example 5, {(S)-3-[(6-Fluoro-benzothiazol-2-ylamino)-methyl]-pyrrolidin-1-yl}-[2-(1,1,2,2-tetrafluoro-ethoxy)-phenyl]-methanone] | 0.0318 |
| Cc1ccc(C(F)(F)F)c(C(=O)N2CC[C@@H](CNc3nc4ccc(F)cc4s3)C2)c1 [Example 6, {(S)-3-[(6-Fluoro-benzothiazol-2-ylamino)-methyl]-pyrrolidin-1-yl}-(5-methyl-2-trifluoromethyl-phenyl)-methanone] | 0.115 |
| Cc1onc(-c2ccccc2)c1C(=O)N1CC[C@@H](CNc2nc3ccc(F)cc3s2)C1 [Example 7, {(S)-3-[(6-Fluoro-benzothiazol-2-ylamino)-methyl]-pyrrolidin-1-yl}-(5-methyl-3-phenyl-isoxazol-4-yl)-methanone] | 0.0623 |
| O=C(c1cnoc1-c1ccccc1)N1CC[C@@H](CNc2nc3ccc(F)cc3s2)C1 [Example 8, {(S)-3-[(6-Fluoro-benzothiazol-2-ylamino)-methyl]-pyrrolidin-1-yl}-(5-phenyl-isoxazol-4-yl)-methanone] | 0.0829 |
| Cc1ccc(Cl)c(C(=O)N2CC[C@@H](CNc3nc4ccc(F)cc4s3)C2)c1 [Example 9, (2-Chloro-5-methyl-phenyl)-{(S)-3-[(6-fluoro-benzothiazol-2-ylamino)-methyl]-pyrrolidin-1-yl}-methanone] | 0.337 |
| COc1ccc(C)cc1C(=O)N1CC[C@@H](CNc2nc3ccc(F)cc3s2)C1 [Example 10, {(S)-3-[(6-Fluoro-benzothiazol-2-ylamino)-methyl]-pyrrolidin-1-yl}-(2-methoxy-5-methyl-phenyl)-methanone] | 0.165 |
| O=C(c1ccccc1C(F)(F)F)N1CC[C@@H](CNc2nc3ccc(Cl)cc3o2)C1 [Example 11, {(S)-3-[(6-Chloro-benzooxazol-2-ylamino)-methyl]-pyrrolidin-1-yl}-(2-trifluoromethyl-phenyl)-methanone] | 0.726 |
| O=C(c1ccccc1OC(F)(F)F)N1CC[C@@H](CNc2nc3ccc(Cl)cc3o2)C1 [Example 12, {(S)-3-[(6-Chloro-benzooxazol-2-ylamino)-methyl]-pyrrolidin-1-yl}-(2-trifluoromethoxy-phenyl)-methanone] | 0.214 |
| O=C(c1ccccc1OC(F)(F)C(F)F)N1CC[C@@H](CNc2nc3ccc(Cl)cc3o2)C1 [Example 13, {(S)-3-[(6-Chloro-benzooxazol-2-ylamino)-methyl]-pyrrolidin-1-yl}-[2-(1,1,2,2-tetrafluoro-ethoxy)-phenyl]-methanone] | 0.149 |
| Cc1ccc(C(F)(F)F)c(C(=O)N2CC[C@@H](CNc3nc4ccc(Cl)cc4o3)C2)c1 [Example 14, {(S)-3-[(6-Chloro-benzooxazol-2-ylamino)-methyl]-pyrrolidin-1-yl}-(5-methyl-2-trifluoromethyl-phenyl)-methanone] | 0.304 |
| Cc1onc(-c2ccccc2)c1C(=O)N1CC[C@@H](CNc2nc3ccc(Cl)cc3o2)C1 [Example 15, {(S)-3-[(6-Chloro-benzooxazol-2-ylamino)-methyl]-pyrrolidin-1-yl}-(5-methyl-3-phenyl-isoxazol-4-yl)-methanone] | 0.0819 |
| O=C(c1cnoc1-c1ccccc1)N1CC[C@@H](CNc2nc3ccc(Cl)cc3o2)C1 [Example 16, {(S)-3-[(6-Chloro-benzooxazol-2-ylamino)-methyl]-pyrrolidin-1-yl}-(5-phenyl-isoxazol-4-yl)-methanone] | 0.147 |
| Cc1ccc(Cl)c(C(=O)N2CC[C@@H](CNc3nc4ccc(Cl)cc4o3)C2)c1 [Example 17, {(S)-3-[(6-Chloro-benzooxazol-2-ylamino)-methyl]-pyrrolidin-1-yl}-(2-chloro-5-methyl-phenyl)-methanone] | 0.565 |
| COc1ccc(C)cc1C(=O)N1CC[C@@H](CNc2nc3ccc(Cl)cc3o2)C1 [Example 18, {(S)-3-[(6-Chloro-benzooxazol-2-ylamino)-methyl]-pyrrolidin-1-yl}-(2-methoxy-5-methyl-phenyl)-methanone] | 0.355 |
| O=C(c1ccccc1OC(F)(F)F)N1CC[C@@H](CNc2nc3cccc(F)c3o2)C1 [Example 19, {(S)-3-[(7-Fluoro-benzooxazol-2-ylamino)-methyl]-pyrrolidin-1-yl}-(2-trifluoromethoxy-phenyl)-methanone] | 0.69 |
| O=C(c1ccccc1OC(F)(F)C(F)F)N1CC[C@@H](CNc2nc3cccc(F)c3o2)C1 [Example 20, {(S)-3-[(7-Fluoro-benzooxazol-2-ylamino)-methyl]-pyrrolidin-1-yl}-[2-(1,1,2,2-tetrafluoro-ethoxy)-phenyl]-methanone] | 0.0772 |
| Cc1ccc(C(F)(F)F)c(C(=O)N2CC[C@@H](CNc3nc4cccc(F)c4o3)C2)c1 [Example 21, {(S)-3-[(7-Fluoro-benzooxazol-2-ylamino)-methyl]-pyrrolidin-1-yl}-(5-methyl-2-trifluoromethyl-phenyl)-methanone] | 0.396 |
| Cc1onc(-c2ccccc2)c1C(=O)N1CC[C@@H](CNc2nc3cccc(F)c3o2)C1 [Example 22, {(S)-3-[(7-Fluoro-benzooxazol-2-ylamino)-methyl]-pyrrolidin-1-yl}-(5-methyl-3-phenyl-isoxazol-4-yl)-methanone] | 0.0566 |
| O=C(c1cnoc1-c1ccccc1)N1CC[C@@H](CNc2nc3cccc(F)c3o2)C1 [Example 23, {(S)-3-[(7-Fluoro-benzooxazol-2-ylamino)-methyl]-pyrrolidin-1-yl}-(5-phenyl-isoxazol-4-yl)-methanone] | 0.123 |
| Cc1ccc(Cl)c(C(=O)N2CC[C@@H](CNc3nc4cccc(F)c4o3)C2)c1 [Example 24, (2-Chloro-5-methyl-phenyl)-{(S)-3-[(7-fluoro-benzooxazol-2-ylamino)-methyl]-pyrrolidin-1-yl}-methanone] | 0.754 |
| COc1ccc(C)cc1C(=O)N1CC[C@@H](CNc2nc3cccc(F)c3o2)C1 [Example 25, {(S)-3-[(7-Fluoro-benzooxazol-2-ylamino)-methyl]-pyrrolidin-1-yl}-(2-methoxy-5-methyl-phenyl)-methanone] | 0.675 |
| O=C(c1ccccc1OC(F)(F)F)N1CC[C@@H](CNc2cnc3cc(Cl)ccc3n2)C1 [Example 26, {(S)-3-[(6-Chloro-quinoxalin-2-ylamino)-methyl]-pyrrolidin-1-yl}-(2-trifluoromethoxy-phenyl)-methanone] | 0.178 |
